Experimental data as given in patent EP0713704A1, “2-Amino-1,3-thiazines as nitric oxide synthase inhibitors” (HOECHST AKTIENGESELLSCHAFT, priority 1994, dated 1996).
Where a name gives a salt, the structure may show the parent alone.

Legend:
NO-Synthase (iNOS) = target: T1, NO-Synthase (iNOS) (Mus musculus, UniProt P29477); experiment: NO measurement by oxyhaemoglobin on macrophages (inhibition of NO release, LPS/γIFN-stimulated); format: cell-based, Maus; conditions: Mäusemakrophagen RAW 264.7, stimulated with LPS + γIFN for 4 h, 120 min incubation with test substance; read-out: IC₅₀-Wert
T1 construct: wird die Neusynthese des NO-produzierenden Enzyms NO-Synthase (iNOS) induziert; endogenous in cells; host or cells: RAW 264.7 mouse macrophages stimulated with LPS and γ-interferon
Procedure: Die Hemmung der NO-Freisetzung durch die Verbindungen der allgemeinen Formel I kann auch durch NO-Messung mittels Oxyhämoglobin auf Makrophagen wie folgt bestimmt werden:
Die subkonfluenten Zellen werden mit dem Zellschaber abgekratzt, in Medium aufgenommen, die Zellzahl bestimmt (Zählung in Trypanblaulösung 0,2 %) und in 24-Napfplatten (1 x 10⁶ Zellen/ml, 1 ml/Napf) ausgesät.
Dazu wird das Kulturmedium von den Zellen abgesaugt und 1 ml/Napf (24-Napfplatte) Inkubationsmedium (MEM ohne Phenolrot (Biochrom F0385)), konditioniert mit 4mM Glutamin, 3,5 g Glukose/l, 3,7 g NaHCO₃/l, 110 mg Natriumpyruvat/l, 50 U/50 µg/ml Pen/Strep und 5 % FKS, aufgegeben. Pro ml Inkubationsmedium werden 1 µl LPS und 1 µl γIFN pipettiert.
Daraus ergeben sich folgende Konzentrationen der Stimulatoren: 140 ng LPS/ml + 5 U γIFN/ml [formula] Während der Stimulation über 4 Stunden wird die Neusynthese des NO-produzierenden Enzyms NO-Synthase (iNOS) induziert. Nach diesem Inkubationszeitraum wird das Inkubationsmedium abgesaugt und jeder Napf zweimal mit frischem Inkubationsmedium gespült. […] Als Kontrolle wird das konditionierte Versuchsmedium nur mit dem Lösungsmittel der Testsubstanz versetzt.
Nach dem Abpipettieren des Versuchsmediums wird die Cytotoxizität der Testsubstanz geprüft (Zellviabilität).

[1] = target: induzierbaren NO-Synthase (Homo sapiens, UniProt P35228); experiment: NO synthase activity assay: quantification of coproduct 3H-L-citrulline formed from 3H-L-arginine; format: biochemical; conditions: read-out: Restaktivität
Text: Die erfindungsgemäße Hemmung der NO-Freisetzung durch die Verbindungen der allgemeinen Formel I kann durch einen Aktivitätsassay bestimmt werden, der auf Arbeiten von Bredt und Snyder sowie Schmidt et al. basiert (s. D.S. Bredt und S.S. Snyder, Isolation of nitric oxide synthase, a calmodulin-requiring enzyme, Proc. Natl. Acad. Sci. USA 87 (1990), 682; H.H.H.W.Schmidt et al., Purification of a soluble isoform of guanylyl cyclase-activating factor synthase, Proc. Natl. Acad. Sci. USA 88 (1991), 365). Hierbei wird für gereinigte NO-Synthase (NOS) das bei der NO-Bildung anfallende Coprodukt L-Citrullin quantitativ erfaßt. Dies geschieht durch den Einsatz von ³H-radiomarkiertem L-Arginin als Substrat der Enzymreaktion, das zu ³H-L-Citrullin und NO umgesetzt wird. Nach Beendigung der Enzyminkubation wird […]; die durch Flüssigkeitsszintillationsmessung ermittelte ³H-Aktivität entspricht dann der Menge an L-Citrullin.
• a) Die Substanz ist analog Beispiel 2 erhältlich. Weiße Kristalle vom Schmp. 153 °C. • b) Die pharmakologische Wirkung wurde in dem oben beschriebenen Aktivitätsassy ermittelt, bei dem das von der NO-Synthase als Coprodukt gebildete Citrullin bestimmt wird. Es wurden folgende Hemmungen der induzierbaren NO-Synthase beobachtet: […]

| IC50 (NO-Synthase (iNOS)) [µM] | activity at 1 µM ([1]; Konzentration: 1 µM) [%] | activity at 10 µM ([1]; Konzentration: 10 µM) [%] | Compound |
| --- | --- | --- | --- |
| 1.3 | – | – | NC1=NCCCS1 [Beispiel 1, 2-Amino-5,6-dihydro-4H-1,3-thiazin-Hydrobromid] |
| – | 15 | 12 | CC1(C)CCSC(N)=N1 [Beispiel 3, 2-Amino-4,4-dimethyl-5,6-dihydro-1,3-thiazin-Hydrochlorid] |
